From the supplement of paper PMC10307832

Assays:
Test in all cases: relative viability (nuclei count vs DMSO), 5 days (fraction); higher = more cells survive
[1] = compound: CCc1c2c(nc3ccc(OC(=O)N4CCC(N5CCCCC5)CC4)cc13)-c1cc3c(c(=O)n1C2)COC(=O)[C@]3(O)CC [Irinotecan] + CC1(C)CCC(c2ccc(Cl)cc2)=C(CN2CCN(c3ccc(C(=O)NS(=O)(=O)c4ccc(N[C@H](CCN5CCOCC5)CSc5ccccc5)c(S(=O)(=O)C(F)(F)F)c4)cc3)CC2)C1 [Navitoclax] (partner 0.5 µM)
Procedure, shortened: (§1)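 Medians of duplicate plates are given as relative viability. That measure is the nuclei count in treated wells divided by the count in vehicle wells. Counts were taken on 4× images of lung cancer cell lines in 1536-well plates, 5 days after pin-tool dosing the day after seeding with one drug alone or a fixed anchor-drug dose plus five library-drug doses (not always all listed) in √10 steps.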

[2] = compound: CC[C@@H](C)CNCC(=O)N1CCC2=C([C@@H]1COC3=CC=CC(=C3)C)C=CS2 [RU-SKI 43] + COc1cc2c(Oc3ccc(NC(=O)C4(C(=O)Nc5ccc(F)cc5)CC4)cc3F)ccnc2cc1OCCCN1CCOCC1 [Foretinib] (partner 0.25 µM)
Procedure, shortened: as §1

[3] = compound: Cn1cc(-c2cnc3ccc4ccc(CS(=O)(=O)NCc5ccccn5)cc4c(=O)c3c2)cn1 [MK-8033] + CC(=O)Nc1cccc(-n2c(=O)n(C3CC3)c(=O)c3c(Nc4ccc(I)cc4F)n(C)c(=O)c(C)c32)c1 [Trametinib] (partner 0.02 µM)
Procedure, shortened: as §1

[4] = compound: CCc1c2c(nc3ccc(OC(=O)N4CCC(N5CCCCC5)CC4)cc13)-c1cc3c(c(=O)n1C2)COC(=O)[C@]3(O)CC [Irinotecan] + Cc1nc(NC(=O)N2CCC[C@H]2C(N)=O)sc1-c1ccnc(C(C)(C)C(F)(F)F)c1 [Alpelisib] (partner 2 µM)
Procedure, shortened: as §1

Cell Line	relative viability ([1]; first compound 0.6325 µM)	relative viability ([1]; first compound 2 µM)	relative viability ([1]; first compound 6.325 µM)	relative viability ([1]; first compound 20 µM)	relative viability ([2]; first compound 0.1 µM)	relative viability ([2]; first compound 0.3162 µM)	relative viability ([2]; first compound 1 µM)	relative viability ([2]; first compound 3.162 µM)	relative viability ([2]; first compound 10 µM)	relative viability ([3]; first compound 0.02 µM)	relative viability ([3]; first compound 0.06325 µM)	relative viability ([3]; first compound 0.2 µM)	relative viability ([3]; first compound 0.6325 µM)	relative viability ([3]; first compound 2 µM)	relative viability ([4]; first compound 0.6325 µM)	relative viability ([4]; first compound 2 µM)	relative viability ([4]; first compound 6.325 µM)	relative viability ([4]; first compound 20 µM)
LXF-289	0.891	0.439	0.153	0.175	0.934	1.03	1.05	1.09	0.97	0.702	0.616	0.685	0.711	0.659	0.994	0.504	0.273	0.214
NCI-H23	0.782	0.505	0.26	0.22	1.01	0.882	1.12	1.27	0.973	0.331	0.349	0.331		0.381	0.519	0.421	0.246	0.243
NCI-H322M	0.733	0.453	0.348	0.338	0.939	1.09	1.11	1.03	0.892	0.527	0.565	0.488	0.585	0.476	0.576	0.37	0.282	0.395
NCI-H441	0.206	0.383	0.304	0.463	0.981	1.01	1.09	1.04	0.842	0.376	0.343	0.391	0.487	0.437	0.68	0.513	0.336	0.5
NCI-H460	0.779	0.165	0.0691	0.053	0.923	1.16	1.09	1.13	0.97	0.116	0.0888	0.0918	0.155	0.0855	0.461	0.339	0.0811	0.0821
NCI-H520	0.851	0.634	0.288	0.227	0.816	0.892	0.812	0.859	0.539	0.615	0.565	0.56	0.795	0.629	0.751	0.733	0.282	0.203
NCI-H596	0.932	0.752	0.412	0.443	0.955	0.676	0.886	0.989	0.931	0.683	0.916	0.733	0.837	0.877	0.639	0.548	0.483	0.557
NCI-H647	1.03	0.39	0.194	0.177	1.39	1.42	1.25	1.17	1.25	0.449	0.469	0.412	0.456	0.415	0.816	0.435	0.197	0.202
NCI-H727	0.225	0.358	0.319	0.308	1.11	0.879	1.2	1.07	0.863	0.371	0.358	0.339	0.393	0.429	0.324	0.433	0.354	0.422
NCI-H838	1.14	0.754	0.4	0.266	1.15	0.994	0.987	1.21	0.964	0.488	0.506	0.534	0.525	0.51	1.28	0.962	0.354	0.295
NCI-H1355	0.812	0.28	0.195	0.237	0.914	1.22	1.01	1.02	0.936	0.415	0.363	0.393	0.447	0.419	0.711	0.4	0.222	0.237
NCI-H1395		0.677	0.521	0.344	0.865	0.985	1.05	1.01	1	0.911	0.983	1.01	1.05	1.03		0.707	0.52	0.246
NCI-H1437	0.75	0.575	0.308	0.214	1.22	1.24	1.37	1.2	1.22	0.483	0.583	0.46	0.607	0.449	0.75	0.67	0.262	0.147
NCI-H1651	0.763	0.544	0.199	0.168	0.896	0.849	0.864	0.888	0.848	0.823	0.846	0.845	0.809	0.861	0.862	0.705	0.246	0.205
NCI-H1666	0.695	0.643	0.401	0.326	0.922	0.96	0.926	0.773	0.848	0.846	0.777	0.862	0.787	0.855	0.697	0.552	0.486	0.337
NCI-H1734	0.618	0.376	0.156	0.188	0.844	0.913	0.938	0.781	0.656	0.655	0.594	0.712	0.636	0.687	0.625	0.331	0.143	0.233
NCI-H1755	0.886	0.283	0.221	0.287	0.935	1.07	0.975	0.979	0.919	0.804	0.767	0.74	0.702	0.732	0.822	0.434	0.292	0.363
